Results taken from publication PMC467104, “Novel NO-TZDs and trimethoxychalcone-based DHPMs: design, synthesis, and biological evaluation as potential VEGFR-2 inhibitors” (Journal of Enzyme Inhibition and Medicinal Chemistry, 2024).
pIC50: −log10 of the molar value.

Molecular target: T1, VEGFR-2 (Homo sapiens, UniProt P35968)
T1 construct: gene KDR
Assay: BPS Bioscience KDR kinase assay (Kinase-Glo Max/ADP-Glo luminescence)
Type: biochemical

T1 sequence (P35968 20-1356): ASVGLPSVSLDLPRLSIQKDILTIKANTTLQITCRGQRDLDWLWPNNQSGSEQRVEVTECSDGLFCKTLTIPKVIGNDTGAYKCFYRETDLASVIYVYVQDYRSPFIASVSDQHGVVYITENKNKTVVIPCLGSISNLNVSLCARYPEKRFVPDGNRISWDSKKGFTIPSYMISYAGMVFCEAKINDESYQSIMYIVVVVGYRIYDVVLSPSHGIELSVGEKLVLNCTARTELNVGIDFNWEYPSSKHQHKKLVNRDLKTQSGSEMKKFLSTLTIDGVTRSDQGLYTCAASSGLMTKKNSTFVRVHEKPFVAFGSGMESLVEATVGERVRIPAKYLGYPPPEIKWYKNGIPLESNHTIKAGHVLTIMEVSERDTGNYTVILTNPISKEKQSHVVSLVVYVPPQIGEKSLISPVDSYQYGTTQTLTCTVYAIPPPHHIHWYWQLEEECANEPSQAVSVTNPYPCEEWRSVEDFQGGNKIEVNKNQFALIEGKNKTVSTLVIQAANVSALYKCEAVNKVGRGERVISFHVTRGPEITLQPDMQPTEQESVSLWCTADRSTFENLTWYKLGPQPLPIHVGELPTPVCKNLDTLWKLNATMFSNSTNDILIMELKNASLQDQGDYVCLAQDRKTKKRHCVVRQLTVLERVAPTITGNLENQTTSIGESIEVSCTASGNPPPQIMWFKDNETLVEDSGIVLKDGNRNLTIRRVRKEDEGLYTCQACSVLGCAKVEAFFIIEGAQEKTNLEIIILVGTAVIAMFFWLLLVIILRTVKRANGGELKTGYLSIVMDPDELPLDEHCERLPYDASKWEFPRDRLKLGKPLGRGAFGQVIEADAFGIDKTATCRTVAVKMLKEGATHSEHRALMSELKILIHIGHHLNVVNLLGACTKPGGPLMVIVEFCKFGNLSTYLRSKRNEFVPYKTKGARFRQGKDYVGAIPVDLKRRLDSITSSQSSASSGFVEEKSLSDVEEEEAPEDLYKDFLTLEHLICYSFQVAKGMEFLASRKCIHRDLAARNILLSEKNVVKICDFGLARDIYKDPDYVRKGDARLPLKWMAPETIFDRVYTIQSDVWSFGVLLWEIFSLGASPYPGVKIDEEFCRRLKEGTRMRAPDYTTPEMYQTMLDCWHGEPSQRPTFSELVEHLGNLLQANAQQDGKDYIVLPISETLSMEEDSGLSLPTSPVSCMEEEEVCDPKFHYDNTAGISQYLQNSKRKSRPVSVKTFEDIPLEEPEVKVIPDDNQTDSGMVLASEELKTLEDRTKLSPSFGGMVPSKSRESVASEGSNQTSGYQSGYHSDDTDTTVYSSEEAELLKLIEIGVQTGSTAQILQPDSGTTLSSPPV

pIC50: 6.95
Structure (SMILES): CCOC(=O)C1=C(C)NC(SCC(=O)Nc2ccc(C(=O)/C=C/c3cc(OC)c(OC)c(OC)c3)cc2)=N[C@@H]1c1ccc(O)c(OC)c1 [CDHPM-10e, Ethyl (R,E)-4–(4-hydroxy-3-methoxyphenyl)-6-methyl-2-((2-oxo-2-((4–(3-(3,4,5-trimethoxyphenyl)acryloyl)phenyl)amino)ethyl)thio)-1,4-dihydropyrimidine-5-carboxylate]
